According to patent publication US8404696B2, “Quinazoline-2,4-dione derivative, and medical compositions for the prophylaxis and treatment of cranial nerve disease containing the same” (Shin Poong Pharmaceutical Co., Ltd., priority 2008, dated 2013):
≈ marks a conversion by molar mass, not a printed value.

What was measured:
[1] = system: middle cerebral artery occlusion (MCAO) model; assay: Anti-stroke effect in MCAO model, intravenous administration around reperfusion; type: in vivo, rats of SD species; settings: 5 mg/kg iv; for Infarcted volume (Mean ± standard deviation): negative control 0.43 ± 0.02
Protocol: Male rats of SD species with 290-300 g of body weight were used as laboratory animals, and 8 rats were used in each experiment group. The operation was performed by using the method of Nagasawa et al. (Nagasawa, H. and Gogure, K. 1989, Stroke, 20: 1037-1043).
The rats were anesthetized by Ketamine, and the operation was performed as body temperature was maintained using thermoplate. The cerebral region was incised following the median line of the neck, and the left common carotid artery, internal carotid artery and external carotid artery were separated, taking care not to damage the vagus nerve. The common carotid artery and external carotid artery were ligatured, and a probe was inserted into the internal carotid artery from the branch point of the internal and external carotid arteries. And then the fundus of the middle cerebral artery was occluded by ligature just on the upper side of the insertion region. A probe was made by heating the end of a 4-0 nylon surgical suture (Dafilon, B. Braun, Germany) and cut into 30 mm. The 7-9 mm end of the probe was coated with the mixture of silcon (Xantopren VL plus, Heraeus Kulzer, Germany) and curing agent (Optosyl-Xantopren VL plus, Heraeus Kulzer, Germany), and the thickness was to be 0.3-0.4 mm. After the intervention of the probe insertion and the animals came out of the anesthetic, individuals in which neurological deficit symptom (right direction circling) was observed were included in the ischemia group.
After 3 hours of ischemia, the inserted probe was removed to reperfuse blood circulation. The brain was extracted after 24 hours, followed by histological staining.
The compound 3 was administered at a programmed time before or after insertion of the probe with oral or intravenous administration. TTC (2,3,5-triphenyltetrazolium chloride) staining was performed to estimate the damage of brain tissue by ischemia. Procephalon of the extracted brain was sliced into 2 mm of sequential slice by using brain matrix (ASI instrument, Warren, Mich., USA). The slices were put into 2% of TTC solution and incubated at 37° C. for 60 minutes for staining. The TTC stained brain slice was fixed in 10% of formalin buffer and the front of the each slice was photographed with a digital camera. The infarcted areas (cm^2) that were not stained with deep red in each acquired image were measured using an image analyzer, and total infarcted volume (cm^3) was calculated by multiplying the thickness of the slices
In the experiment, the probe was removed after stoke induction so that circulation was reperfused.

[2] = system: mixed culture of nerve cells-glial cells; assay: Protecting effect on NMDA-induced nerve cell death (LDH release); type: cell-based, ICR mouse; settings: 100 μM NMDA, LDH release after 24 hours
In short: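 Embryonic day-14 ICR mouse cortical neurons seeded on cortical glia, Ara-C-treated, then exposed at day 12–15 for 20 min to 100 μM NMDA with compound at 1 or 2 μg/mL. LDH released 24 h later measured colorimetrically as a cell-death index.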

mouse brain cells = assay: Inhibitory effect on ROS production in brain cells (DCF-DA, NMDA-induced); type: cell-based
[3] = system: superoxide dismutase (SOD); assay: Increase of superoxide dismutase (SOD) activity in mouse brain cells; type: cell-based; settings: 100 μg/ml
Protocol: ROS inhibitory effect of compounds was represented to the dose suppressing 50% of production of reactive oxygen compared to control. […] The activity of superoxide dismutase (SOD) was measured by using a kit acquired in Sigma.

[4] = system: pentylentetrazole (PTZ)-induced convulsion; assay: Anti-convulsant effect, pentylentetrazole (PTZ) test; type: in vivo; settings: 10 mg/kg intraperitoneally, PTZ 80 mg/kg subcutaneously
In short: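 Compound was given intraperitoneally at 10 mg/kg before PTZ challenge. The read-outs were time to convulsion onset, time until convulsions fully disappeared, and mortality.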

[5] = treatment time 0.5 after reperfusion
[6] = treatment time 1 after reperfusion
[7] = treatment time 2 after reperfusion
[8] = treatment time 4 after reperfusion
[9] = treatment time 6 after reperfusion
[10] = treatment time 12 (hours) after reperfusion
[11] = treatment time 18 after reperfusion
[12] = treatment time 24 after reperfusion
[13] = treatment time −0.5 after reperfusion

CC(=O)N(CCCCNCCCn1c(=O)[nH]c2ccccc2c1=O)CCCn1c(=O)[nH]c2ccccc2c1=O [Compound 3, N-[3-(2,4-dioxo-1,4-dihydro-2H-quinazolin-3-yl)propyl]-N-{4-[3-(2,4-dioxo-1,4-dihydro-2H-quinazolin-3-yl)propylamino]butyl}acetamide]
Inhibitory percentage compared to negative control [1, 5]: 72.3%
Infarcted volume (Mean ± standard deviation) [1, 5]: 0.12 ± 0.03 cm^3
Inhibitory percentage compared to negative control [1, 6]: 53.8%
Infarcted volume (Mean ± standard deviation) [1, 6]: 0.20 ± 0.04 cm^3
Inhibitory percentage compared to negative control [1, 7]: 49.9%
Infarcted volume (Mean ± standard deviation) [1, 7]: 0.22 ± 0.02 cm^3
Inhibitory percentage compared to negative control [1, 8]: 47.9%
Infarcted volume (Mean ± standard deviation) [1, 8]: 0.22 ± 0.09 cm^3
Inhibitory percentage compared to negative control [1, 9]: 60.9%
Infarcted volume (Mean ± standard deviation) [1, 9]: 0.17 ± 0.04 cm^3
Inhibitory percentage compared to negative control [1, 10]: 62.7%
Infarcted volume (Mean ± standard deviation) [1, 10]: 0.16 ± 0.04 cm^3
Inhibitory percentage compared to negative control [1, 11]: 13.5%
Infarcted volume (Mean ± standard deviation) [1, 11]: 0.37 ± 0.03 cm^3
Inhibitory percentage compared to negative control [1, 12]: 16.3%
Infarcted volume (Mean ± standard deviation) [1, 12]: 0.36 ± 0.08 cm^3
Inhibitory percentage compared to negative control [1, 13]: 67.2%
Infarcted volume (Mean ± standard deviation) [1, 13]: 0.14 ± 0.03 cm^3
Inhibitory effect of cell death by NMDA-induced excitable neurotoxicity ([2]; 1 μg/ml compound): 45.5%
Inhibitory effect of cell death by NMDA-induced excitable neurotoxicity ([2]; 2 μg/ml compound): 54.4%
Suppression of oxidative stress induced by NMDA (DCF fluorescence) (mouse brain cells; 125 μg/ml and 250 μg/ml, 300 μM NMDA, 24 hours, FIG. 2): suppressed the oxidative stress induced by NMDA of nerve cells in a dose-dependent manner
IC50 (mouse brain cells; 24 h, dose suppressing 50% of production of reactive oxygen compared to control, mouse brain cells, read-out: ROS inhibitory effect ID50): 108 ± 27.2 µg/mL (≈ 203 µM)
Increase of SOD activity, compared to control [3]: 3.2 ± 2.7
mortality rate ([4]; (animals/total), negative control 70(17/23)): 17(2/12) %
Induction percentage of convulsion ([4]; (animals/total), negative control 100(23/23)): 50(6/12) %
Initiation time of convulsion ([4]; negative control 5.0 ± 0.7): 34.7 ± 7.7 min
Duration of convulsion ([4]; negative control 46.7 ± 3.3): 11.8 ± 5.6 min
